In the NIST ThermoML archive (doi:10.1016/j.jct.2007.04.005):
Numbers after ± are expanded uncertainties.

Test: xn = mol fraction of the nth substance listed
Conditions: 328.15 K, Liquid

CCCCCCCCC [nonane] + C1CCCCC1
mass density [kg/m3]
Conditions	x2 = 0	x2 = 0.09303	x2 = 0.2009	x2 = 0.3051	x2 = 0.417	x2 = 0.512	x2 = 0.5996	x2 = 0.7052	x2 = 0.7993	x2 = 0.9039
18340 kPa	–	–	–	–	–	–	–	737.9 ± 1.3	744.5 ± 1.3	753.1 ± 1.2
20370 kPa	708.4 ± 1.6	711.2 ± 1.6	715.1 ± 1.5	719 ± 1.5	723.6 ± 1.5	728 ± 1.5	733 ± 1.4	739.5 ± 1.4	746.2 ± 1.4	754.8 ± 1.3
22390 kPa	710 ± 1.7	712.8 ± 1.7	716.7 ± 1.6	720.6 ± 1.6	725.2 ± 1.6	729.6 ± 1.5	734.7 ± 1.5	741.2 ± 1.5	747.9 ± 1.4	756.5 ± 1.4
24420 kPa	711.5 ± 1.8	714.4 ± 1.7	718.2 ± 1.7	722.2 ± 1.7	726.8 ± 1.6	731.2 ± 1.6	736.3 ± 1.6	742.8 ± 1.5	749.5 ± 1.5	758.1 ± 1.4
26450 kPa	713 ± 1.9	715.9 ± 1.8	719.8 ± 1.8	723.7 ± 1.8	728.3 ± 1.7	732.7 ± 1.7	737.9 ± 1.6	744.4 ± 1.6	751.1 ± 1.6	759.8 ± 1.5
28470 kPa	714.5 ± 1.9	717.4 ± 1.9	721.3 ± 1.9	725.2 ± 1.8	729.8 ± 1.8	734.2 ± 1.8	739.4 ± 1.7	746 ± 1.7	752.6 ± 1.6	761.4 ± 1.6
29490 kPa	715.2 ± 2	718.1 ± 1.9	722 ± 1.9	725.9 ± 1.9	730.6 ± 1.8	735 ± 1.8	740.2 ± 1.8	746.7 ± 1.7	753.4 ± 1.7	762.1 ± 1.6
30500 kPa	716 ± 2	718.8 ± 2	722.8 ± 1.9	726.7 ± 1.9	731.3 ± 1.9	735.7 ± 1.8	740.9 ± 1.8	747.5 ± 1.7	754.2 ± 1.7	762.9 ± 1.6
32530 kPa	717.4 ± 2.1	720.3 ± 2.1	724.2 ± 2	728.1 ± 2	732.8 ± 1.9	737.2 ± 1.9	742.4 ± 1.9	748.9 ± 1.8	755.7 ± 1.8	764.4 ± 1.7
34550 kPa	718.8 ± 2.2	721.7 ± 2.1	725.6 ± 2.1	729.6 ± 2.1	734.2 ± 2	738.7 ± 2	743.9 ± 1.9	750.5 ± 1.9	757.1 ± 1.8	765.9 ± 1.8
36580 kPa	720.2 ± 2.3	723.1 ± 2.2	727 ± 2.2	730.9 ± 2.1	735.7 ± 2.1	740.1 ± 2	745.3 ± 2	751.9 ± 1.9	758.6 ± 1.9	767.4 ± 1.8
38600 kPa	721.6 ± 2.3	724.4 ± 2.3	728.4 ± 2.3	732.3 ± 2.2	737 ± 2.2	741.5 ± 2.1	746.7 ± 2.1	753.3 ± 2	760 ± 2	768.9 ± 1.9
39620 kPa	722.2 ± 2.4	725.1 ± 2.3	729 ± 2.3	733 ± 2.2	737.7 ± 2.2	742.1 ± 2.2	747.4 ± 2.1	754 ± 2.1	760.7 ± 2	769.6 ± 1.9
